What was measured:
FLT3 = target: T1, FLT3 (Homo sapiens, UniProt P36888); assay: Binding constant (Kd) measurement, phage-displayed kinase competition binding assay; conditions: for Binding Assay: FLT3(JMminus): FLT3(JMminus) construct; for Binding Assay: FLT3(DKIN): FLT3(DKIN) construct
T1 construct: FLT3(DKIN); made in house
T1 sequence (P36888 610-943 limits assumed): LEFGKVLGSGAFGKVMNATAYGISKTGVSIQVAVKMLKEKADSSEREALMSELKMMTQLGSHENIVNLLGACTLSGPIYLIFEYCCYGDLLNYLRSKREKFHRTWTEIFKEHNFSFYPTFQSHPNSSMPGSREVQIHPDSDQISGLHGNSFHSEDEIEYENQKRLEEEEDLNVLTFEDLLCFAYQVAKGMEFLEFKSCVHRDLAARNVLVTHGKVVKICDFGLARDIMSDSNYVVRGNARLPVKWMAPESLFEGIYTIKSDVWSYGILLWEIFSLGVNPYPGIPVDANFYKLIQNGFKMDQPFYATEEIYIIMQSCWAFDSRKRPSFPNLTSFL
Text: Binding Constant (Kd) Measurements for Small-Molecule-Kinase Interactions
The term “ND” represents non-determined values.

MV4,11 cells = assay: FLT3 assay using MV4,11 cells (cellular proliferation, MTS); type: cell-based, human; conditions: cell assay code CS0001
Procedure: The ability of FLT3 kinase inhibitors to inhibit cellular proliferation was also examined. MV4:11 was a cell line derived from a patient with acute myelogenous leukemia.
FLT3 Assay Using MV4,11 Cells
MV4,11 cells were grown in an incubator @ 37° C. in 5% CO2 in Medium 2 (RPMI, 10% FBS, 4 mM glutamine, Penn/Strep). The cells were counted daily and the cell density was kept between 1e5 and 8e5 cells/ml.
Day One: Enough cells were harvested for experiments to be conducted in 50 ml conical tubes. The harvested cells were spun at 500 g for 5 min at 4° C., the supernatant was then aspirated and the cells were resuspended in the starting volume of 1×PBS. The cells were again spun at 500 g for 5 min at 4° C. and the supernatant again aspirated. The cells were then resuspended in medium 3 (DMEM w/ glut, 10% FBS, Penn/Strep) to a density of 4e5 cells/ml and incubated (37° C. in 5% CO2 O/N.
Day Two: The cells were counted and enough medium 3 was added to decrease density to 2e5 cells/ml. 50 ul (10,000 cells) was aliquoted into each well of a 96 well optical plate using multichannel pipetman. The compound plate was then set up by aliquoting 3 μl of negative control (DMSO) into column 1 of a 96 well 300 ul polypropylene plate, aliquoting 3 μt of positive control (10 mM AB20121) into column 12 of plate, and aliquoting 3 μl of appropriate compounds from serial dilutions into columns 2-11. To each well, 150 μl of Medium 3 was added and 50 μl of compound/medium mixture from compound plate into rows of optical plate in duplicate. The cells were then incubated @ 37° C. in 5% CO2 for 3 days.
Day Five: MTS was thawed in a H2O bath. 20 μl of MTS was added to each well of optical plate and the cells were incubated (37° C. in 5% CO2 for 2 hours. The plate was then placed on a plate shaker for 30 seconds on high speed.

| Binding Assay: FLT3(JMminus) (FLT3) | Cell Assay: CS0001:IC50 (MV4,11 cells) | Binding Assay: FLT3(DKIN) (FLT3) | IC50 (MV4,11 cells; Homo sapiens, MV4-11) [µM] | SMILES |
| --- | --- | --- | --- | --- |
| + + | + + + | – | – | COc1cc(NC(=O)c2cn3nc(Cl)ccc3n2)ccc1NC(=O)Nc1cc(C(C)(C)C)on1 [Compound N171] |
| – | + + + | + + + + | – | CC(C)(C)c1cc(NC(=O)Nc2ccc(NC(=O)c3cnn(-c4cccc(Cl)c4)c3Br)cc2)no1 [Compound N45] |
| – | + + + | + + + + | – | CC(C)(C)c1cc(NC(=O)Nc2ccc(NC(=O)c3cccnc3)cc2)co1 [Compound N1] |
| – | + + + | + + + | – | CC(C)(C)c1cc(NC(=O)Nc2ccc(NC(=O)c3cc(Cl)nc(Cl)c3)cc2)no1 [Compound N132] |
| – | + + + + | + + + + | – | CC(C)(C)c1cc(NC(=O)Nc2ccc(OCc3c(F)cccc3F)cc2)no1 [Compound G21] |
| – | + + | + + + | – | CC(C)(C)c1cc(NC(=O)Nc2ccc(NC(=O)Cc3ccccc3)cc2)no1 [Compound N35] |
| + + | + + + | – | – | CC(C)(C)c1cc(NC(=O)Nc2ccc(NC(=O)c3ccccc3O)cc2)no1 [Compound N69] |
| – | + + | + + | – | C=C/C(=C\C=C\Cl)NC(=O)Nc1ccc(C(=O)OCCOC)cc1 [Compound Z54] |
| + + + | + + | – | – | CC(C)(C)c1cc(NC(=O)Nc2ccc(NC(=O)c3nn(-c4cccc(C(F)(F)F)c4)c(=O)cc3O)cc2)no1 [Compound N185] |
| – | + + + | + + + + | – | CC(C)(C)c1cc(NC(=O)Nc2ccc(NC(=O)c3ccnc4ccccc34)cc2)no1 [Compound N141] |
| – | + + | + + + | – | CC(C)(C)c1cc(NC(=O)Nc2ccc(OCCN3CCSCC3)cc2)no1 [Compound G53] |
| – | + + + | + + + + | – | CNC(=O)c1ccc(NC(=O)Nc2cc(C(C)(C)C)on2)cc1 [Compound N85] |
| – | + + + | + + + + | – | COc1cccc(-c2ccc(C(=O)Nc3ccc(NC(=O)Nc4cc(C(C)(C)C)on4)cc3)o2)c1 [Compound N105] |
| – | + + + | + + + + | – | Cc1noc(-c2ccc(NC(=O)Nc3cc(C(C)(C)C)on3)cc2)n1 [Compound P9] |
| – | + + | + + + | – | CC(C)(C)c1cc(NC(=O)Nc2ccc(OCc3ccccc3-c3ccccc3)cc2)no1 [Compound G8] |
| – | – | + + + | > 10 | CC(C)(C)c1cc(NC(=O)Nc2ccc(NC(=O)C3CCNCC3)cc2)no1 [Compound N150] |
| – | + + | + + + | – | CC(C)(C)c1cc(NC(=O)Nc2ccc(NC(=O)c3c4ccccc4nc4ccccc34)cc2)no1 [Compound N148] |
| + + + | + + + | – | – | CC(C)(C)c1cc(NC(=O)Nc2ccc(NC(=O)c3ccc(-n4cc(-c5ccncn5)cn4)cc3)cc2)no1 [Compound N76] |
| – | + + | + + | – | CC1CN(CCOc2ccc(NC(=O)Nc3cc(C(C)(C)C)on3)cc2)CCN1 (centres unmarked) [Compound G46] |
| – | + + | + + + | – | Cc1nnsc1C(=O)Nc1ccc(NC(=O)Nc2cc(C(C)(C)C)on2)cc1 [Compound N18] |
| – | + + + | + + + + | – | Cc1ccc(-n2nc(C(C)(C)C)cc2NC(=O)Nc2ccc(OCCN3CCOC(CO)C3)c3ccccc23)cc1 (centres unmarked) [Compound G38] |
| + + + + | + + | – | – | CC(C)(C)c1cc(NC(=O)Nc2ccc(NC(=O)c3sccc3CCc3cccc(C(F)(F)F)c3)cc2)no1 [Compound N183] |
| – | + + | + + + | – | CC(C)(C)c1cc(NC(=O)Nc2ccc(NC(=O)c3ncccc3C(N)=O)cc2)no1 [Compound N6] |

| Binding Assay: FLT3(JMminus) (FLT3) | Cell Assay: CS0001:IC50 (MV4,11 cells) | Binding Assay: FLT3(DKIN) (FLT3) | IC50 (MV4,11 cells; Homo sapiens, MV4-11) [µM] | SMILES |
| --- | --- | --- | --- | --- |
| – | + + + | + + + | – | COc1ccc(-c2noc(-c3ccc(NC(=O)Nc4cc(C(C)(C)C)on4)cc3)n2)c2ccccc12 [Compound P3] |
| – | + + + | + + + + | – | CC(C)(C)c1cc(NC(=O)Nc2ccc(OCc3ccc4nonc4c3)cc2)no1 [Compound G55] |
| – | + + | + + + + | – | Cc1[nH]c(C(=O)Nc2ccc(NC(=O)Nc3cc(C(C)(C)C)on3)cc2)c(C)c1CCC(=O)O [Compound N39] |
| – | + + + | + + + + | – | COc1cc(OC)nc(Oc2cccnc2C(=O)Nc2ccc(NC(=O)Nc3cc(C(C)(C)C)on3)cc2)n1 [Compound N56] |
| – | + + | + + | – | CC(C)(C)c1cc(NC(=O)Nc2ccncc2)no1 [Compound A53] |
| – | + + + + | + + + + | – | CC(C)(C)c1cc(NC(=O)Nc2ccc(NC(=O)c3ncc[nH]3)cc2)no1 [Compound N13] |
| + + + | + + | – | – | COc1ccc(C(=O)c2c[nH]c(C(=O)Nc3ccc(NC(=O)Nc4cc(C(C)(C)C)on4)cc3)c2)cc1 [Compound N177] |
| – | + + + | + + + + | – | CC(C)(C)c1cc(NC(=O)Nc2ccc(OCc3ccc(C(F)(F)F)cc3)cc2)no1 [Compound G6] |
| – | + + | + + | – | CC(C)(C)c1cc(NC(=O)Nc2ccc(NC(=O)c3ccc(Br)cc3)cc2)no1 [Compound N27] |
| – | + + + | + + + + | – | CC(C)(C)c1cc(NC(=O)Nc2ccc(OCCc3ccc(F)cc3)cc2)no1 [Compound G24] |
| – | + + + | + + + | – | CC(C)(C)c1cc(NC(=O)Nc2ccc(NC(=O)C3=Cc4cc(F)cc(S(C)(=O)=O)c4C3)cc2)no1 [Compound N58] |
| + + + | + + + | – | – | CC(C)(C)c1cc(C(=O)Nc2ccc(NC(=O)Nc3cc(C(C)(C)C)on3)cc2)n(-c2ccccc2)n1 [Compound N78] |
| – | + + | + + + | – | CC(C)(C)c1cc(NC(=O)Nc2ccc(NC(=O)c3c(F)cccc3F)cc2)no1 [Compound N37] |
| – | + + + | + + + + | – | CC(C)(C)OC(=O)Nc1ccc(NC(=O)Nc2cc(C(C)(C)C)on2)cc1 [Compound N101] |
| + + + | + + | – | – | CC(C)c1nnsc1C(=O)Nc1ccc(NC(=O)Nc2cc(C(C)(C)C)on2)cc1 [Compound N182] |
| – | + + + | + + + + | – | COc1nc(C)cc(C)c1C(=O)Nc1ccc(NC(=O)Nc2cc(C(C)(C)C)on2)cc1 [Compound N22] |
| – | + + + | + + + + | – | COC(=O)c1ccc(C(=O)Nc2ccc(NC(=O)Nc3cc(C(C)(C)C)on3)cc2)nc1 [Compound N12] |
| – | + + | + + + | – | CC(C)(C)c1cc(NC(=O)Nc2ccc(NC(=O)C(N)Cc3ccccc3F)cc2)no1 (centres unmarked) [Compound N42] |
| – | + + + + | + + + + | – | CC(C)(C)c1cc(NC(=O)Nc2ccc(NC(=O)CCc3ccccc3)cc2)no1 [Compound N96] |
| – | + + + | + + | – | CC(C)(C)c1csc(NC(=O)Nc2ccc(OCc3ccccc3)cc2)n1 [Compound G49] |
| + + + | + + | – | – | COc1cc(NC(=O)CCC(=O)N2CCNC(=O)CC2)ccc1NC(=O)Nc1cc(C(C)(C)C)on1 [Compound N172] |
| – | + + | + + + | – | CC1CN(CCOc2ccc(NC(=O)Nc3cc(C(C)(C)C)on3)cc2)CC(C)O1 (centres unmarked) [Compound G42] |

| SMILES | Binding Assay: FLT3(JMminus) (FLT3) | Cell Assay: CS0001:IC50 (MV4,11 cells) | Binding Assay: FLT3(DKIN) (FLT3) | IC50 (MV4,11 cells; Homo sapiens, MV4-11) [µM] |
| --- | --- | --- | --- | --- |
| Cn1cc(C(=O)Nc2ccc(NC(=O)Nc3cc(C(C)(C)C)on3)cc2)c(C(F)(F)F)n1 [Compound N20] | – | + + + | + + + + | – |

Reference: patent US20050267182A1, “Urea derivatives as FLT-3 modulators” (Ambit Biosciences Corporation, priority 2003, published 2005)
